This note sets out measurements from paper PMC13534789, “Molecular Glue Degraders Enhance CAPRIN1‐Dependent Lysosomal Degradation of APP and Reduce Amyloid β in Alzheimer's Disease” (Advanced Science, 2026).

Data set [1] deals with CAPRIN1, G3BP1, BACE1, ADAM10, PSEN1, nicastrin, GGA1, Sorla, neprilysin. Nature of the data set: Western blot of CAPRIN1, G3BP1 and other AD-related proteins. It is filed as cell-based, human. The settings on record: 10 µM. In general terms: In western blotting, separated proteins are transferred to a membrane and probed.
Data set [2] concerns the target APP (Homo sapiens, UniProt P05067). The experiment in a line: Western blot of APP in HEK-APP695WT cells. It counts as cell-based. Further details: expressed in transfected cells. The settings on record: 72 h.
Data set [3] is described as follows: Brain/plasma ratio in mice. It is filed as in vivo, male C57BL/6 mice. As to conditions: male, C57BL/6, brain, 10 mg/kg; mouse, PO, 10 mpk; read-out: B/P-Kp (brain-to-plasma partition coefficient). As to the method:
Brain/Plasma Ratio test was processed by Sai Life Sciences Pvt. Ltd. Briefly, twelve male C57BL/6 mice were administered orally with solution formulation of 0152 at 10 mg/kg dose. Blood samples (approximately 60 µL) were collected under light isoflurane anesthesia from a set of three mice at 0.25, 0.5, 1, and 2 h. The blood samples were collected at each time point in labelled micro centrifuge tube containing K2EDTA as anticoagulant. Plasma was harvested by centrifugation of blood and stored at ‐70±10°C until analysis. Immediately after collecting blood, animals were anesthetized, perfused using 10 mL phosphate buffer saline, and brain samples were collected from each mouse at respective time points. Brain samples were homogenized using ice‐cold phosphate buffer saline (pH 7.4), and homogenates were stored below ‐70±10°C until analysis. Total homogenate volume was three times the brain weight. The plasma and brain concentration‐time data of 0152 were used for calculation. Plasma and brain samples were quantified by fit‐for‐purpose LC‐MS/MS method.

Data set [4] is described as follows: Tolerability and body weight in 5xFAD mice. It counts as in vivo. An excerpt: Female 5xFAD transgenic mice (9–10 weeks old) were used to evaluate the efficacy of 0152 in reducing amyloid pathology. Mice were housed under Indiana University standard laboratory conditions. For intraperitoneal (IP) administration, mice received either vehicle or 0152 (indicated concentrations) in a formulation consisting of 20% DMSO, 20% Cremophor EL, and 60% PBS. For oral (PO) administration, mice received either vehicle or 0152 (indicated concentrations) in a formulation consisting of 10% NMP (N‐methyl‐2‐pyrrolidone), 10% PG (Propylene Glycol), 5% Solutol HS‐15, and 75% Captisol (10% w/v in RO water). At the end of the treatment period, mice were sacrificed, and their brains were collected for histological analysis. Brain tissues were fixed in 10% Formalin, embedded in paraffin, and sectioned. Thioflavin S staining was performed to visualize β‐sheet‐rich amyloid plaques, and immunohistochemistry was conducted using the 6E10 monoclonal antibody to detect Aβ plagues. Body weights were recorded daily throughout the study.

APP, sequence (P05067 18-695 isoform P05067-4 limits assumed): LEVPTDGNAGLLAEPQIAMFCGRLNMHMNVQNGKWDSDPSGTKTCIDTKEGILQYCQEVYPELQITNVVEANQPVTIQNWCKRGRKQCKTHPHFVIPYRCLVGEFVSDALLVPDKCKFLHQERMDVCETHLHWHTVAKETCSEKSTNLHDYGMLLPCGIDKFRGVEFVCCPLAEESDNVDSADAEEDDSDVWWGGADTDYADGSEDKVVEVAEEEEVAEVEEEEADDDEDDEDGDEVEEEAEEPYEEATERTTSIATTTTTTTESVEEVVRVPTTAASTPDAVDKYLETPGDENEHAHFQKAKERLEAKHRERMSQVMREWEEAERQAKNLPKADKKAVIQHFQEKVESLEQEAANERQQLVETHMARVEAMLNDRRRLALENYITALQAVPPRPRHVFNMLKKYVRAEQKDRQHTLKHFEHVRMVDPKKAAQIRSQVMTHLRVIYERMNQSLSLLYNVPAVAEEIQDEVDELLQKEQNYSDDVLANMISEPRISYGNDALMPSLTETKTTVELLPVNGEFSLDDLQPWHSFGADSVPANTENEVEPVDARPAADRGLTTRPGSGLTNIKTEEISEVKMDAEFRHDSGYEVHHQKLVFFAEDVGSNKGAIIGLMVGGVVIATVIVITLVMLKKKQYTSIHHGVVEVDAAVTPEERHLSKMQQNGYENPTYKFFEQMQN

Consider `N#Cc1cccc(NC(=O)Nc2nc3ccc(C(=O)N4CCOCC4)cc3s2)c1` [compound 0043], for which the “CAPRIN1 and G3BP1 protein levels” value in data set [1] (HEK-APP695WT cells, 12–72 h) is “no effect”. The “Levels of other AD-related proteins (BACE1, ADAM10, PSEN1, nicastrin, GGA1, Sorla, neprilysin)” value in data set [1] (SAD2.3-Ns, 72 h) is given as “did not affect levels”. In addition, in data set [2] (HEK-APP695WT cells, increasing concentrations), the “Intracellular APP (western blot)” value was “reduced intracellular APP”. In addition, the “Effects on APP and Aβ42 in CAPRIN1 KO cells” value in data set [2] (sgCAPRIN1 HEK-APP695WT cells, 10 µM) is listed as “abolished”.

Regarding `COc1cccc(NC(=O)Nc2nc3ccc(C(=O)N4CCOCC4)cc3s2)c1` [compound 0152], in data set [3], the Kp was found to be 0.03. In addition, the “Tolerability, body weight” value in data set [4] (80 mg/kg IP twice per day, 30 days) was “well tolerated with no weight loss”. Besides, in data set [4] (80 mg/kg oral gavage twice daily, 30 days), the Body weight entry is “no observed weight loss”. Besides, the “Tolerability (lethargy, ataxia, paralysis, seizures, weight loss)” value in data set [4] (100 mg/kg IP daily, 24 days) is given as “tolerated treatment well”.
